Assay [1] concerns the target T1, IDH1 S280F (Homo sapiens, UniProt O75874, S280F).
T1 construct: made in house; host or cells: E. coli BL21(DE3)plysS
The assay can be described thus: Steady-state kinetics, spectrophotometric NADPH absorption assay. It is filed as biochemical. As to the method: (§1) This assay was used to study steady-state kinetics and inhibition of reactions catalysed by IDH1 variants. The assay buffer was 100 mM Tris, 10 mM MgCl2, 0.2 mM dithiothreitol (DTT), 0.005%(v/v) Tween 20, and 0.1 mg mL^−1 bovine serum albumin (BSA) (pH 8.0). For inhibition assays, IDH1 variants were incubated with an inhibitor for 12 min before the reaction was initiated by substrate addition. The standard error was derived from curve fitting using GraphPad Prism v9. See figure legends for details on specific kinetic assays (Figs. 1–3; Supplementary Fig. 5; Supplementary Table 1). […]
(§2) spectrophotometric NADPH absorption assay. Conditions: 100 mM Tris, 10 mM MgCl2, 0.2 mM DTT, 0.005 %(v/v) Tween 20, and 0.1 mg/mL bovine serum albumin (BSA), pH 8.0. […] (a) Michaelis Menten […]
(§3) parameters for the oxidative decarboxylation of isocitrate. Errors: standard error of the mean (n = 3). (b) Michaelis Menten parameters for the reduction of 2-OG to 2-HG. Errors: standard error of the mean (n = 3).

Assay [2] has as its target T2, IDH1 wt (Homo sapiens, UniProt O75874).
T2 construct: made in house; host or cells: E. coli BL21(DE3)plysS
The description is as above. It is filed as biochemical. As to the method: as §1, §2, §3

For assay [3], the system named is LN18 cells containing an empty vector (control, no IDH1). The assay can be described thus: 2-HG levels in cells by anion-exchange chromatography-MS. It is filed as cell-based, human. The arrangement: unit not given here.
Setting [4] is: oxidative decarboxylation of isocitrate; 1 nM enzyme; read-out: KM IDH1 S280F.
[5] abbreviates: oxidative decarboxylation of isocitrate; 1 nM enzyme; read-out: KM IDH1 wt.
Where [6] appears, read: 5 µM inhibitor, 24 h, replicates.
Where [7] appears, read: oxidative decarboxylation of isocitrate; 1 nM enzyme; varied substrate = label.
Where [8] appears, read: reduction of 2-OG to 2-HG; […] enzyme; read-out: KM IDH1 S280F.

Where “and” joins values, the source holds several entries; their conditions need not be identical. Equal entries are not always repeated. Structures can show the parent of a compound that is named as a salt. Where two headings read alike, the source gives them in different places.

Broadly, the Km is the substrate concentration at which the rate is half of its maximum.

T2 sequence (O75874 whole entry): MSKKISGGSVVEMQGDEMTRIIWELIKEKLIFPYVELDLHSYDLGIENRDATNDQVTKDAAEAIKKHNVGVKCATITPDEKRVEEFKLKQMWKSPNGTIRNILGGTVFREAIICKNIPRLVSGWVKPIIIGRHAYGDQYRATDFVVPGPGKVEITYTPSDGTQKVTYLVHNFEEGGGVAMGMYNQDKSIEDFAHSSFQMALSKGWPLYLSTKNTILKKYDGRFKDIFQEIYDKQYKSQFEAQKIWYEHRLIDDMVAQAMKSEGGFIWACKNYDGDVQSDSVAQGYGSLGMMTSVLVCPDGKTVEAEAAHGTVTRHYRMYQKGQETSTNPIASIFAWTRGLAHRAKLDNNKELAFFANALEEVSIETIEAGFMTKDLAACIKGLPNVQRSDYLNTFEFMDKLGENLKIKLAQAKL
T1 sequence (O75874 whole entry S280F): as the sequence (O75874 whole entry) above, with S280F counted along it

In the case of `O=C(O)CC(C(=O)O)C(O)C(=O)O` (racemic) [DL-Isocitrate, DL-isocitric acid trisodium salt], the Michaelis-Menten constant (Km) in assay [1] (setting [4]) is 12 ± 1 µM; in assay [2] (setting [5]), 31 ± 3 µM.

Turning to `O=C(O)CCC(=O)C(=O)O` [2-OG, 2-oxoglutarate], the results for the Km in assay [1] (read-out: KM IDH1 S280F; reduction of 2-OG to 2-HG; […] enzyme) and in assay [2] (read-out: KM IDH1 wt; reduction of 2-OG to 2-HG; […] enzyme) were 123 ± 4 µM and 792 ± 103 µM, respectively.

For `Cc1cn(C(=O)c2c(-c3c(Cl)cc(Cl)cc3Cl)noc2C(C)(C)F)c2cccc(/C=C/C(=O)O)c12` [DS-1001B], in assay [3] (setting [6]), the “2-HG levels, control (empty vector) LN18 cells” value (shortened to “2-HG levels, control”) was 51141.4 and 46980.7 and 53466.4 and 38288.1.

For `C[C@H](Nc1ccc(C#N)n(C)c1=O)c1cc2cc(Cl)ccc2[nH]c1=O` [FT-2102], in assay [3] (setting [6]), the “2-HG levels, control” value was 52804.5 and 64927 and 75933.5 and 34018.1.

As to `COc1c(C)cc(NC(=O)c2nn(Cc3ccc(F)cc3)c3c2CN(C(=O)c2ccc[nH]2)C[C@]3(C)C(N)=O)cc1C` [GSK864], in assay [3] (setting [6]), the “2-HG levels, control” value is 43585.6 and 50898.8 and 60357.4 and 48169.7.

`CC(Nc1nccc(N2C(=O)OCC2C(C)C)n1)c1ccc(CN2CCC(F)(F)CC2)cc1` (stereo not drawn) [IDH224]: the “2-HG levels, control” value in assay [3] was 89318.1 and 81458.8 and 60558.2 and 69273.4.

Regarding `[Cl-].[Cl-].[Mg+2]` [MgCl2], the results for the Km in assay [1] (setting [4]), in assay [1] (setting [8]) and in assay [2] (setting [5]) were 24 ± 3 µM, 15 ± 4 µM and 18 ± 2 µM, respectively. Besides, the “kcat IDH1 S280F” value in assay [1] (setting [7]) is 33 ± 1 s⁻¹. Further, the “Decrease of KM for IDH1 S280F compared to IDH1 wt” value in assay [1] (reduction of 2-OG to 2-HG) was 100 fold. For the same compound, the “kcat IDH1 wt” value in assay [2] (setting [7]) was 37 ± 1 s⁻¹.

For `NC(=O)c1ccc[n+]([C@@H]2O[C@H](COP(=O)([O-])OP(=O)(O)OC[C@H]3O[C@@H](n4cnc5c(N)ncnc54)[C@H](OP(=O)(O)O)[C@@H]3O)[C@@H](O)[C@H]2O)c1` [NADP+], the figures for the Km in assay [1] (setting [4]) and in assay [2] (setting [5]) were 7.4 ± 0.7 µM and 10.1 ± 0.7 µM, respectively. In addition, in assay [1] (setting [7]), the “kcat IDH1 S280F” value was 31.3 ± 0.6 s⁻¹. In assay [2] (setting [7]), the “kcat IDH1 wt” value worked out at 43.2 ± 0.7 s⁻¹.

Take `NC(=O)C1=CN([C@@H]2O[C@H](COP(=O)(O)OP(=O)(O)OC[C@H]3O[C@@H](n4cnc5c(N)ncnc54)[C@H](OP(=O)(O)O)[C@@H]3O)[C@@H](O)[C@H]2O)C=CC1` [NADPH]: the figures for the Michaelis constant (Km) in assay [1] (setting [8]) and in assay [2] (reduction of 2-OG to 2-HG; […] enzyme; read-out: KM IDH1 wt) were 3 ± 0.3 µM and 7 ± 2 µM, respectively.

For `N#Cc1ccnc(N2C(=O)CC[C@H]2C(=O)N(c2cncc(F)c2)[C@H](C(=O)NC2CC(F)(F)C2)c2ccccc2Cl)c1` [ivosidenib], the “2-HG levels, control” value in assay [3] (5 µM inhibitor, 24 h, replicates, listed as AG120) was 57883 and 75917.7 and 85802.8 and 47477.2.

These data come from paper PMC9378673 (Nature Communications, 2022).
